Tested on: patient-derived HCC xenograft lines (07-0409, 29-0909A, 01-0909)
Assay: Patient-derived HCC xenograft models in SCID mice
Conditions: for tumor growth rate of xenografts / tumor regressions: single agent therapy, 30 mg/kg Compound of Formula I or 5 mg/kg RAD001 orally daily, HCC07-0409
[1] = 30 mg/kg Compound of Formula I orally daily, SCID mice

Method: Xenograft models: All mice were provided with sterilized food and water ad libitum and housed in negative pressure isolators with 12 hours light/dark cycle. Primary HCCs have previously been used to create xenograft lines, of which the following lines (07-0409, 29-0909A, 01-0909) were used to establish tumors in male SCID mice (Animal Resources Centre, Canning Vale, Western Australia) aged 9 to 10 weeks.
Tumor treatment: Compound of Formula I and RAD001 was dissolved in vehicle at an appropriate concentration before treatment. Mice bearing indicated tumors were orally administered 5 mg/kg RAD001 or 30 mg/kg Compound of Formula I daily, or two compounds combined for indicated days. Each treatment group was comprised of 10 animals and each experiment was repeated at least twice. Treatment started on day 7 after tumor implantation. By this time, the tumors reached the size of approximately 100 mm^3. Tumor growth was monitored and tumor volume was calculated as described. At the end of the study, the mice were sacrificed with body and tumor weights recorded and the tumors harvested for analysis. The efficacy of Compound of Formula I was determined by T/C ratio, where T and C are median weight of drug-treated and vehicle-treated tumor respectively at the end of treatment.

Structure (SMILES) | acute mortality throughout treatment [1] | body weight loss throughout treatment [1] | anti-tumor activities on patient-derived HCC xenograft lines (lines 07-0409, 29-0909A, 01-0909, 30 mg/kg orally daily) | tumor growth rate of xenografts | tumor regressions
CN1CCN(c2ccc3nc(-c4c(N)c5c(F)cccc5[nH]c4=O)[nH]c3c2)CC1 [Compound of Formula I, 4-Amino-5-fluoro-3-[6-(4-methylpiperazin-1-yl)-1H-benzimidazol-2-yl]-1H-quinolin-2-one] | no acute mortality | no significant weight loss | observed | inhibited | did not induce tumor regressions
CO[C@H]1C[C@@H]2CC[C@@H](C)[C@@](O)(O2)C(=O)C(=O)N2CCCC[C@H]2C(=O)O[C@H]([C@H](C)C[C@@H]2CC[C@@H](OCCO)[C@H](OC)C2)CC(=O)[C@H](C)/C=C(\C)[C@@H](O)[C@@H](OC)C(=O)[C@H](C)C[C@H](C)/C=C/C=C/C=C/1C [RAD001, 40-O-(2-hydroxy)ethyl-rapamycin, reference compound] |  |  |  | inhibited | did not induce tumor regressions
